# Experimental data as given in PMC11277489, “Novel Piperazine Derivatives of Vindoline as Anticancer Agents” (International Journal of Molecular Sciences, 2024).
# Columns and labels:
# HL-60(TB) = assay: NCI60 one-dose screen (10 μM), Leukemia; assay type: cell-based; details: Homo sapiens; 10 μM; HL-60(TB), Leukemia; read-out: Growth percent rate
# K-562 = assay: NCI60 one-dose screen (10 μM), Leukemia; assay type: cell-based; details: Homo sapiens, K562; 10 μM; K-562, Leukemia; read-out: Growth percent rate
# MOLT-4 = assay: NCI60 one-dose screen (10 μM), Leukemia; assay type: cell-based, human
# RPMI-8226 = assay: NCI60 one-dose screen (10 μM), Leukemia; assay type: cell-based; details: Homo sapiens; 10 μM; RPMI-8226, Leukemia; read-out: Growth percent rate
# A549/ATCC = assay: NCI60 one-dose screen (10 μM), Non-small Cell Lung Cancer; assay type: cell-based; details: Homo sapiens; 10 μM; A549/ATCC, Non-small Cell Lung Cancer; read-out: Growth percent rate
# EKVX = assay: as above; assay type: cell-based; details: Homo sapiens, 10 μM, Non-small Cell Lung Cancer, read-out: Growth percent rate
# HOP-62 = assay: as above; assay type: cell-based; details: Homo sapiens; 10 μM; HOP-62, Non-small Cell Lung Cancer; read-out: Growth percent rate
# NCI-H23 = assay: as above; assay type: cell-based; details: Homo sapiens; 10 μM; NCI-H23, Non-small Cell Lung Cancer; read-out: Growth percent rate
# NCI-H322M = assay: as above; assay type: cell-based; details: Homo sapiens, 10 μM, Non-small Cell Lung Cancer, read-out: Growth percent rate
# NCI-H460 = assay: as above; assay type: cell-based; details: Homo sapiens; 10 μM; NCI-H460, Non-small Cell Lung Cancer; read-out: Growth percent rate
# NCI-H522 = assay: as above; assay type: cell-based; details: Homo sapiens; 10 μM; NCI-H522, Non-small Cell Lung Cancer; read-out: Growth percent rate
# COLO 205 = assay: NCI60 one-dose screen (10 μM), Colon Cancer; assay type: cell-based, human; details: Homo sapiens; 10 μM; COLO 205, Colon Cancer; read-out: Growth percent rate
# HCC-2998 = assay: NCI60 one-dose screen (10 μM), Colon Cancer; assay type: cell-based; details: Homo sapiens; 10 μM; HCC-2998, Colon Cancer; read-out: Growth percent rate
# HCT-116 = assay: NCI60 one-dose screen (10 μM), Colon Cancer; assay type: cell-based; details: Homo sapiens; 10 μM; HCT-116, Colon Cancer; read-out: Growth percent rate
# HCT-15 = assay: NCI60 one-dose screen (10 μM), Colon Cancer; assay type: cell-based; details: Homo sapiens; 10 μM; HCT-15, Colon Cancer; read-out: Growth percent rate
# HT29 = assay: NCI60 one-dose screen (10 μM), Colon Cancer; assay type: cell-based; details: Homo sapiens, HT-29; 10 μM; HT29, Colon Cancer; read-out: Growth percent rate
# SW-620 = assay: NCI60 one-dose screen (10 μM), Colon Cancer; assay type: cell-based; details: Homo sapiens; 10 μM; SW-620, Colon Cancer; read-out: Growth percent rate
# SF-268 = assay: NCI60 one-dose screen (10 μM), CNS Cancer; assay type: cell-based; details: Homo sapiens; 10 μM; SF-268, CNS Cancer; read-out: Growth percent rate
# SF-295 = assay: NCI60 one-dose screen (10 μM), CNS Cancer; assay type: cell-based; details: Homo sapiens; 10 μM; SF-295, CNS Cancer; read-out: Growth percent rate
# SF-539 = assay: NCI60 one-dose screen (10 μM), CNS Cancer; assay type: cell-based, human; details: Homo sapiens; 10 μM; SF-539, CNS Cancer; read-out: Growth percent rate
# SNB-19 = assay: NCI60 one-dose screen (10 μM), CNS Cancer; assay type: cell-based; details: Homo sapiens; 10 μM; SNB-19, CNS Cancer; read-out: Growth percent rate
# U251 = assay: NCI60 one-dose screen (10 μM), CNS Cancer; assay type: cell-based; details: Homo sapiens, U-251; 10 μM; U251, CNS Cancer; read-out: Growth percent rate
# LOX IMVI = assay: NCI60 one-dose screen (10 μM), Melanoma; assay type: cell-based, human; details: Homo sapiens; 10 μM; LOX IMVI, Melanoma; read-out: Growth percent rate
# MALME-3M = assay: NCI60 one-dose screen (10 μM), Melanoma; assay type: cell-based; details: Homo sapiens; 10 μM; MALME-3M, Melanoma; read-out: Growth percent rate
# M14 = assay: NCI60 one-dose screen (10 μM), Melanoma; assay type: cell-based; details: Homo sapiens; 10 μM; M14, Melanoma; read-out: Growth percent rate
# MDA-MB-435 = assay: NCI60 one-dose screen (10 μM), Melanoma; assay type: cell-based; details: Homo sapiens; 10 μM; MDA-MB-435, Melanoma; read-out: Growth percent rate
# SK-MEL-28 = assay: NCI60 one-dose screen (10 μM), Melanoma; assay type: cell-based; details: Homo sapiens; 10 μM; SK-MEL-28, Melanoma; read-out: Growth percent rate
# SK-MEL-5 = assay: NCI60 one-dose screen (10 μM), Melanoma; assay type: cell-based, human; details: Homo sapiens; 10 μM; SK-MEL-5, Melanoma; read-out: Growth percent rate
# UACC-257 = assay: NCI60 one-dose screen (10 μM), Melanoma; assay type: cell-based; details: Homo sapiens; 10 μM; UACC-257, Melanoma; read-out: Growth percent rate
# IGROV1 = assay: NCI60 one-dose screen (10 μM), Ovarian Cancer; assay type: cell-based; details: Homo sapiens, IGROV-1; 10 μM; IGROV1, Ovarian Cancer; read-out: Growth percent rate
# OVCAR-4 = assay: NCI60 one-dose screen (10 μM), Ovarian Cancer; assay type: cell-based; details: Homo sapiens; 10 μM; OVCAR-4, Ovarian Cancer; read-out: Growth percent rate
# OVCAR-8 = assay: NCI60 one-dose screen (10 μM), Ovarian Cancer; assay type: cell-based; details: Homo sapiens; 10 μM; OVCAR-8, Ovarian Cancer; read-out: Growth percent rate
# 786–0 = assay: NCI60 one-dose screen (10 μM), Renal Cancer; assay type: cell-based; details: Homo sapiens; 10 μM; 786-0, Renal Cancer; read-out: Growth percent rate
# A498 = assay: NCI60 one-dose screen (10 μM), Renal Cancer; assay type: cell-based; details: Homo sapiens; 10 μM; A498, Renal Cancer; read-out: Growth percent rate
# ACHN = assay: NCI60 one-dose screen (10 μM), Renal Cancer; assay type: cell-based; details: Homo sapiens, 10 μM, Renal Cancer, read-out: Growth percent rate
# CAKI-1 = assay: NCI60 one-dose screen (10 μM), Renal Cancer; assay type: cell-based; details: Homo sapiens; 10 μM; CAKI-1, Renal Cancer; read-out: Growth percent rate
# RXF 393 = assay: NCI60 one-dose screen (10 μM), Renal Cancer; assay type: cell-based, human; details: Homo sapiens; 10 μM; RXF 393, Renal Cancer; read-out: Growth percent rate
# SN12C = assay: NCI60 one-dose screen (10 μM), Renal Cancer; assay type: cell-based; details: Homo sapiens, 10 μM, Renal Cancer, read-out: Growth percent rate
# TK-10 = assay: NCI60 one-dose screen (10 μM), Renal Cancer; assay type: cell-based; details: Homo sapiens; 10 μM; TK-10, Renal Cancer; read-out: Growth percent rate
# MCF7 = assay: NCI60 one-dose screen (10 μM), Breast Cancer; assay type: cell-based; details: Homo sapiens; 10 μM; MCF7, Breast Cancer; read-out: Growth percent rate
# HS 578T = assay: NCI60 one-dose screen (10 μM), Breast Cancer; assay type: cell-based; details: Homo sapiens; 10 μM; HS 578T, Breast Cancer; read-out: Growth percent rate
# [1] = test system: 60 human tumor cell lines (NCI60); assay: NCI60 one-dose screen (10 μM), whole panel; assay type: cell-based; details: 10 μM; mean over 60 human cancer cell lines; read-out: Growth percent rate, Mean
smiles,measurement,setting,value
CC[C@]12C=CCN3CC[C@@]4(c5ccc(OC)cc5N(C)[C@H]4[C@@](O)(C(=O)OC)[C@@H]1OC(=O)CCC(=O)N1CCN(C(c4ccc(F)cc4)c4ccc(F)cc4)CC1)[C@@H]32 [Compound 31],activity at 10 µM,HL-60(TB),-98.4%
same,activity at 10 µM,K-562,7.65%
same,growth percent rate,"MOLT-4; 10 μM one-dose, MOLT-4 leukemia, negative = lethality",−98.81%
same,activity at 10 µM,"MOLT-4; Homo sapiens, 10 μM, MOLT-4, Leukemia, read-out: Growth percent rate",-98.8%
same,activity at 10 µM,RPMI-8226,-98.1%
same,activity at 10 µM,A549/ATCC,1.83%
same,activity at 10 µM,EKVX,-17.8%
same,activity at 10 µM,HOP-62,-57%
same,activity at 10 µM,NCI-H23,-23.4%
same,activity at 10 µM,NCI-H322M,-0.86%
same,activity at 10 µM,NCI-H460,-60.9%
same,activity at 10 µM,NCI-H522,-22.2%
same,activity at 10 µM,COLO 205,-45%
same,activity at 10 µM,HCC-2998,-66.9%
same,activity at 10 µM,HCT-116,-32.4%
same,activity at 10 µM,HCT-15,3.11%
same,activity at 10 µM,HT29,-83.3%
same,activity at 10 µM,SW-620,-37%
same,activity at 10 µM,SF-268,7.32%
same,activity at 10 µM,SF-295,-61.1%
same,activity at 10 µM,SF-539,-38.4%
same,activity at 10 µM,SNB-19,8.85%
same,activity at 10 µM,U251,-15.1%
same,activity at 10 µM,LOX IMVI,-56%
same,activity at 10 µM,MALME-3M,-16.6%
same,activity at 10 µM,M14,0.99%
same,activity at 10 µM,MDA-MB-435,-23.3%
same,activity at 10 µM,SK-MEL-28,-6.67%
same,activity at 10 µM,SK-MEL-5,-88%
same,activity at 10 µM,UACC-257,-30.8%
same,activity at 10 µM,IGROV1,-92.2%
same,activity at 10 µM,OVCAR-4,-34.6%
same,activity at 10 µM,OVCAR-8,-13.2%
same,activity at 10 µM,786–0,-40.3%
same,activity at 10 µM,A498,-61.6%
same,activity at 10 µM,ACHN,-35.8%
same,activity at 10 µM,CAKI-1,1.73%
same,activity at 10 µM,RXF 393,-56.3%
same,activity at 10 µM,SN12C,-89.1%
same,activity at 10 µM,TK-10,-32.1%
same,activity at 10 µM,MCF7,-28.7%
same,activity at 10 µM,HS 578T,-32.6%
same,activity at 10 µM,[1],-41.8%
